Measurements published in patent US9399626B2, “2-thiopyrimidinones” (Pfizer Inc., priority 2011, dated 2016).
Where a name gives a salt, the structure may show the parent alone.

Target: T1, MPO (purified from human polynuclear leukocytes) (Homo sapiens, UniProt P05164)
T1 construct: purified from human polynuclear leukocytes; purchased Calbiochem/EMD Biosciences; host or cells: human polynuclear leukocytes (natural source)
Test: MPO Amplex Red Activity Assay
Format: biochemical
Conditions: Table 1, 2 μM H2O2, pH 7.4
Method: MPO Amplex Red Activity Assay.
MPO peroxidase activity was measured by monitoring the formation of resorufin generated from the oxidation of Amplex Red (10-Acetyl-3,7-dihydroxyphenoxazine) (Invitrogen, Carlsbad, Calif.) by MPO (Gomes, Fernandes et al. 2005). Assay mixtures (100 μL total volume) contained 50 mM NaPi pH 7.4, 150 mM NaCl, 1 mM DTPA (diethylenetriaminepentaacetic acid), 2% DMSO, 2 μM H2O2, 30 μM Amplex Red and the reaction was initiated by the addition of […] (purified from human polynuclear leukocytes and purchased from Calbiochem/EMD Biosciences, Gibbstown, N.J.). All assays were performed in 96-well, half-area, black, nonbinding surface, polystyrene plates (Corning) and the production of resorufin (excitation 530 nm, emission 580 nm) was monitored every 20 sec on a Spectramax M2 Microplate Spectrophotometer (Molecular Devices, Palo Alto, Calif.) equipped with Softmax Pro software (Molecular Devices, Palo Alto, Calif.). Reactions to determine the background reaction rate consisted of all assay components and 4 μL of 500 unit/mL bovine catalase (Sigma) in 50 mM KPi pH 7.0. The background rate was subtracted from each reaction progress curve. All data was analyzed using non-linear regression analysis in Microsoft Excel and Kaleidagraph (Synergy Software).
To determine inhibitor potency (kinact/KI) against MPO, the first 600 sec of the reaction progress curves were fit to equation 1, where Vo is the initial rate in RFU/sec and t is time in seconds, to obtain the first order rate constant for enzyme inactivation (kobs) at each inhibitor concentration.
[formula] Equation 1 is a variation of the standard equation for slow binding inhibition where the steady state velocity (Vs) is set to zero. Each kobs value was corrected for auto-inactivation of the enzyme by subtracting the kobs value for the uninhibited reaction. The corrected kobs values were then plotted versus inhibitor concentration ([I]) and fit to equation 2
[formula] where kinact is the maximal rate of inactivation and KI is the inhibitor concentration that yields half the rate of maximal inactivation (Copeland 2005).
Table 1 and (1A) below provides the myeloperoxidase inhibitory activity for the Examples below in accordance with the above-described assay.

T1 sequence (P05164 279-745 limits assumed): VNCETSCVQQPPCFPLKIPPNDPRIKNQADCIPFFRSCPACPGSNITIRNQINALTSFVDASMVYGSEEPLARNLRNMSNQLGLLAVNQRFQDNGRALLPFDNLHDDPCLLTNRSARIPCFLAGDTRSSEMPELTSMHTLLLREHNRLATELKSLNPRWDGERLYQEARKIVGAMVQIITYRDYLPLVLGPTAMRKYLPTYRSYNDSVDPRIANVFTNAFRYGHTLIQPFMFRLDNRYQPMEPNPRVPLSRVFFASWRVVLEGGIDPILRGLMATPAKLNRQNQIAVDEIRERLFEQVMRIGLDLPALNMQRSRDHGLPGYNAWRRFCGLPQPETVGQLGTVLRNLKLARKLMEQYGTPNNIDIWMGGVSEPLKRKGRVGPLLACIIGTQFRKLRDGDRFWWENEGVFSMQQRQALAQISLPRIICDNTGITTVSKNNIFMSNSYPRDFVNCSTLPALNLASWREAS
T1 sequence (P05164 165-273 limits assumed): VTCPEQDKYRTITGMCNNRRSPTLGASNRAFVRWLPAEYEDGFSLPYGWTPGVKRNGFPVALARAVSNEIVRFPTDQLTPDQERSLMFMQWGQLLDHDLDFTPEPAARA

Row | SMILES | MPO kinact/Ki
1 | COc1cc2ccccc2cc1-c1cc(=O)[nH]c(=S)n1CCN [Example 95, 1-(2-aminoethyl)-6-(3-methoxy-2-naphthyl)-2-thioxo-2,3-dihydropyrimidin-4(1H)-one hydrochloride] | 15400 1/s per M
2 | N=C(N)NCCn1c(-c2ccccc2-n2nccn2)cc(=O)[nH]c1=S [Example 130, 1-(2-{4-oxo-2-thioxo-6-[2-(2H-1,2,3-triazol-2-yl)phenyl]-3,4-dihydropyrimidin-1(2H)-yl}ethyl)guanidine hydrochloride] | 4830 1/s per M
3 | COc1ccc(-c2cc(=O)[nH]c(=S)n2CCOCCNC(=N)N)c(OC)c1 [Example 140, 1-(2-{2-[6-(2,4-dimethoxyphenyl)-4-oxo-2-thioxo-3,4-dihydropyrimidin-1(2H)-yl]ethoxy}ethyl) guanidine formate] | 10400 1/s per M
4 | COc1ccc(Cl)cc1-c1cc(=O)[nH]c(=S)n1CCCNC(C)=O [Example 134, N-{3-[6-(5-chloro-2-methoxyphenyl)-4-oxo-2-thioxo-3,4-dihydropyrimidin-1(2H)-yl]propyl} acetamide] | 5350 1/s per M
5 | COCCn1c(-c2cccc3ccccc23)cc(=O)[nH]c1=S [Example 319, 1-(2-methoxyethyl)-6-(1-naphthyl)-2-thioxo-2,3-dihydropyrimidin-4(1H)-one] | 7810 1/s per M
6 | COc1ccc(-c2cc(=O)[nH]c(=S)n2CC2CCNCC2)c(OC)c1 [Example 235, 6-(2,4-dimethoxyphenyl)-1-(piperidin-4-ylmethyl)-2-thioxo-2,3-dihydropyrimidin-4(1H)-one hydrochloride] | 2690 1/s per M
7 | COc1ccc(OC)c(-c2cc(=O)[nH]c(=S)n2CCCN)c1 [Example 87, 1-(3-aminopropyl)-6-(2,5-dimethoxyphenyl)-2-thioxo-2,3-dihydropyrimidin-4(1H)-one hydrochloride] | 15400 1/s per M
8 | COc1ccc(-c2cc(=O)[nH]c(=S)n2CCC(C)(C)N)c(OC)c1 [Example 219, 1-(3-amino-3-methylbutyl)-6-(2,4-dimethoxyphenyl)-2-thioxo-2,3-dihydropyrimidin-4(1H)-one hydrochloride] | 1970 1/s per M
9 | COc1cc2ccccc2cc1-c1cc(=O)[nH]c(=S)n1CCO [Example 100, 1-(2-hydroxyethyl)-6-(3-methoxy-2-naphthyl)-2-thioxo-2,3-dihydropyrimidin-4(1H)-one] | 16100 1/s per M
10 | COc1cccc(OC)c1-c1cc(=O)[nH]c(=S)n1CCO [Example 167, 6-(2,6-dimethoxyphenyl)-1-(2-hydroxyethyl)-2-thioxo-2,3-dihydropyrimidin-4(1H)-one] | 20300 1/s per M
11 | O=c1cc(-c2cc3ccccc3s2)n(CCO)c(=S)[nH]1 [Example 40, 6-(1-benzothien-2-yl)-1-(2-hydroxyethyl)-2-thioxo-2,3-dihydropyrimidin-4(1H)-one] | 6430 1/s per M
12 | COc1ccc(OC)c(-c2cc(=O)[nH]c(=S)n2CCN=C(N)N)c1 [Example 121, 2-{2-[6-(2,5-dimethoxyphenyl)-4-oxo-2-thioxo-3,4-dihydropyrimidin-1(2H)-yl]ethyl}guanidine hydrochloride] | 15800 1/s per M
13 | COc1ccc(-c2cc(=O)[nH]c(=S)n2CCO)c(OC)n1 [Example 4, 6-(2,6-Dimethoxypyridin-3-yl)-1-(2-hydroxyethyl)-2-thioxo-2,3-dihydropyrimidin-4(1H)-one] | 8790 1/s per M
14 | COCCn1c(-c2csc3ccccc23)cc(=O)[nH]c1=S [Example 324, 6-(1-benzothien-3-yl)-1-(2-methoxyethyl)-2-thioxo-2,3-dihydropyrimidin-4(1H)-one] | 11300 1/s per M
15 | COc1ccc(Cl)cc1-c1cc(=O)[nH]c(=S)n1C[C@@H](O)CN [Example 113, 1-[(2S)-3-amino-2-hydroxypropyl]-6-(5-chloro-2-methoxyphenyl)-2-thioxo-2,3-dihydropyrimidin-4(1H)-one trifluoroacetate] | 25900 1/s per M
16 | COc1ccc(OC)c(-c2cc(=O)[nH]c(=S)n2CC(N)=O)c1 [Example 2, 2-(6-(2,5-Dimethoxyphenyl)-4-oxo-2-thioxo-3,4-dihydropyrimidin-1(2H)-yl)acetamide] | 12500 1/s per M
17 | COCCn1c(-c2cccn2C)cc(=O)[nH]c1=S [Example 281, 1-(2-methoxyethyl)-6-(1-methyl-1H-pyrrol-2-yl)-2-thioxo-2,3-dihydropyrimidin-4(1H)-one] | 1060 1/s per M
18 | COCCn1c(-c2cccc(C#N)c2)cc(=O)[nH]c1=S [Example 291, 3-[3-(2-methoxyethyl)-6-oxo-2-thioxo-1,2,3,6-tetrahydropyrimidin-4-yl]benzonitrile] | 2450 1/s per M
19 | COCCn1c(-c2cc(F)ccc2OC(F)(F)F)cc(=O)[nH]c1=S [Example 346] | 5890 1/s per M
20 | NCCCn1c(-c2cc3ccccc3s2)cc(=O)[nH]c1=S [Example 71, 1-(3-aminopropyl)-6-(1-benzothien-2-yl)-2-thioxo-2,3-dihydropyrimidin-4(1H)-one hydrochloride] | 3570 1/s per M
21 | NCCCn1c(-c2cccc3ncsc23)cc(=O)[nH]c1=S [Example 72, 1-(3-aminopropyl)-6-(1,3-benzothiazol-7-yl)-2-thioxo-2,3-dihydropyrimidin-4(1H)-one trifluoroacetate] | 3580 1/s per M
22 | COc1ccc(C)cc1-c1cc(=O)[nH]c(=S)n1CCCN=C(N)N [Example 119, 2-{3-[6-(2-methoxy-5-methylphenyl)-4-oxo-2-thioxo-3,4-dihydropyrimidin-1(2H)-yl]propyl} guanidine] | 25600 1/s per M
23 | COc1cc(OC)c(-c2cc(=O)[nH]c(=S)n2CC(N)=O)cc1F [Example 107, 2-[6-(5-fluoro-2,4-dimethoxyphenyl)-4-oxo-2-thioxo-3,4-dihydropyrimidin-1(2H)-yl]acetamide] | 1280 1/s per M
24 | COc1ccc(-c2cc(=O)[nH]c(=S)n2CCNC(=O)OC(C)(C)C)c(OC)c1 [Example 5, tert-butyl 2-(6-(2,4-dimethoxyphenyl)-4-oxo-2-thioxo-3,4-dihydropyrimidin-1(2H)-yl)ethylcarbamate] | 1280 1/s per M

Same assay, conditions: Table 1A, 2 μM H2O2, pH 7.4

Row | SMILES | MPO kinact/Ki
25 | COc1ccc(F)cc1-c1cc(=O)[nH]c(=S)n1CCCNC(=N)N1CC(F)(F)C1 [Example 351, 3,3-Difluoro-N-{3-[6-(5-fluoro-2-methoxyphenyl)-4-oxo-2-thioxo-3,4-dihydropyrimidin-1(2H)-yl]propyl}azetidine-1-carboximidamide] | 7870 1/s per M
26 | CSc1ccccc1-c1cc(=O)[nH]c(=S)n1CC(N)=O [Example 365, 2-{6-[2-(methylsulfanyl)phenyl]-4-oxo-2-thioxo-3,4-dihydropyrimidin-1(2H)yl}acetamide] | 9290 1/s per M
27 | COCCNC(=O)Cn1c(-c2ccc(OC)cc2OC)cc(=O)[nH]c1=S [Example 436, 2-[6-(2,4-dimethoxyphenyl)-4-oxo-2-thioxo-3,4-dihydropyrimidin-1(2H)-yl]-N-(2-methoxyethyl)acetamide] | 3710 1/s per M
28 | COc1ccc(-c2cc(=O)[nH]c(=S)n2CC(=O)NCC(C)(C)N)c(OC)c1 [Example 429, N-(2-amino-2-methylpropyl)-2-[6-(2,4-dimethoxyphenyl)-4-oxo-2-thioxo-3,4-dihydropyrimidin-1(2H)-yl]acetamide] | 6620 1/s per M
29 | COc1ccc(-c2cc(=O)[nH]c(=S)n2CC(=O)NC[C@@H](C)N)c(OC)c1 [Example 395, N-[(2R)-2-aminopropyl]-2-[6-(2,4-dimethoxyphenyl)-4-oxo-2-thioxo-3,4-dihydropyrimidin-1(2H)-yl]acetamide] | 6980 1/s per M
30 | NC(=O)Cn1c(-c2cc(Cl)ccc2OCCO)cc(=O)[nH]c1=S [Example 426, 2-{6-[5-chloro-2-(2-hydroxyethoxy)phenyl]-4-oxo-2-thioxo-3,4-dihydropyrimidin-1(2H)-yl}acetamide] | 4410 1/s per M
31 | NCCn1c(-c2ccc3c(c2)OCCO3)cc(=O)[nH]c1=S [Example 357, 1-(2-aminoethyl)-6-(2,3-dihydro-1,4-benzodioxin-6-yl)-2-thioxo-2,3-dihydropyrimidin-4(1H)-one] | 2940 1/s per M
32 | COc1ccc(Cl)cc1-c1cc(=O)[nH]c(=S)n1CCCNC(=N)N1CCCC1 [Example 450, N-{3-[6-(5-chloro-2-methoxyphenyl)-4-oxo-2-thioxo-3,4-dihydropyrimidin-1(2H)-yl]propyl}pyrrolidine-1-carboximidamide] | 7730 1/s per M
